According to patent US8343953B2, “Pharmaceutical compounds” (Astex Therapeutics Limited, priority 2005, dated 2013):

What was measured:
P70S6 kinase (T412E) = target: T1, P70S6 kinase (T412E) (Homo sapiens, UniProt P23443, T412E); experiment: P70s6 radiometric assay; format: biochemical; settings: ATP approximately 15 μM; enzyme 2 nM; read-out: IC50 (anti-P70S6K activity)
T1 construct: purchased Upstate 14-486
Experimental: P7086 enzyme is bought from Upstate and used at 2 nM in the assay.
In the phosphoryl transfer reaction, the ^33P-γ phosphate from ATP is transferred to the serine residue. The reaction mixture is transferred to a phosphocellulose filter plate where the peptide binds and the unused ATP is washed away. After washing, scintillant is added and the incorporated activity measured by scintillation counting.
S6 kinase substrate cocktail from Upstate (#20-122)
• 10 mM MOPS pH 7.0 • 0.1 mg/ml BSA • 0.001% Brij-35 • 0.5% glycerol • 0.2 mM EDTA • 10 mM MgCl2 • 0.01% β-mercaptoethanol • Made as a 10× stock, stored at […] in 2 ml aliquots • 15 μM ATP
ATP will break down over time, keep on ice as far as possible and use small aliquots to ensure the stock is fresh. • γ^33P-ATP APBiotech (BF1000) • 12.5% orthophosphoric acid • 0.5% orthophosphoric acid • Microscint 20 (Packard) Assay Preparation • Enzyme mix (per 1 ml—100 assay points): • 743.75 μl H2O • […] • 3.75 μl 10 mM ATP • 2.5 μl enzyme • Substrate mix (per 1 ml—100 assay points): • 250 μl S6 cocktail substrate • 750 μl H2O • 3.5 μl ^33P-ATP (BF1000 from APBiotech)
Compounds—prepare a dilution curve in DMSO in a polypropylene 96 well plate to 40× final assay concentration (final DMSO 2.5%).
In a polypropylene 96 well plate add in order: • 5 μl compound • 10 μl substrate mix • 10 μl enzyme mix
Final ATP concentration is approximately 15 μM. KM for ATP calculated to 47 uM radiometrically. Controls are “no compound” (DMSO only) and “no enzyme” (use 10 μl of the enzyme mix prior to adding enzyme). Cover with a plate seal (TopSeal A—Packard) or plastic lid from filter plate (moderate radiation barrier). Mix by gentle shaking. Incubate at room temperature for 50 minutes. Stop the reaction by adding 20 μl of 2% orthophosphoric acid.
Pre-wet the wells of a Millipore MAPH NOB plate with 50 μl of 0.5% orthophosphoric acid wash buffer. Filter the liquid through on a Millipore vacuum filtration unit. Transfer the whole of the stopped reaction to the wells. Filter through. Wash twice with 200 μl of 0.5% orthophosphoric acid wash buffer. Vacuum to near dryness. Remove the plate support and allow to the filters to dry further on tissue paper. Snap the plate into an adapter for the Packard TopCount. Add 20 μl of Microscint 20 scintillant, seal with a sheet of Topseal A and count for 30 s on the TopCount.
The compounds of examples 4, 13, 21, 22, 23, 42, 47, 71, 84, 85 and 98 were tested for anti-P70S6K activity (assay as described above): […]

ROCK-II (h) = ROCK-II (h) (Homo sapiens, UniProt O75116); experiment: ROCK-II (h) assay (radiometric, 33P-ATP filtermat); format: biochemical; settings: read-out: IC50 (anti-ROCK-II activity)
Experimental: ROCK-II (h) Assay Protocol
In a final reaction volume of 25 μl, ROCK-II (h) (5-10 mU) is incubated with 50 mM Tris pH 7.5, 0.1 mM EGTA, 30 μM […], 10 mM MgAcetate and [γ-^33P-ATP] (specific activity approx. 500 cpm/pmol, concentration as required). The reaction is initiated by the addition of the MgATP mix. After incubation for 40 minutes at room temperature, the reaction is stopped by the addition of 5 μl of a 3% phosphoric acid solution. 10 μl of the reaction is then spotted onto a P30 filtermat and washed three times for 5 minutes in 75 mM phosphoric acid and once in methanol prior to drying and scintillation counting.
The compounds of examples 14, 22, 23, 57, 59 and 84 were tested for anti-ROCK-II activity (assay as described above): […]

rat MM1 hepatoma cells = settings: cited from earlier work
MM1 cells = settings: continuous delivery using osmotic pumps; syngeneic rats; cited from earlier work
[1] = system: isolated rabbit urinary bladder smooth muscle; settings: cited from earlier work

T1 sequence (P23443 1-421 T412E limits assumed): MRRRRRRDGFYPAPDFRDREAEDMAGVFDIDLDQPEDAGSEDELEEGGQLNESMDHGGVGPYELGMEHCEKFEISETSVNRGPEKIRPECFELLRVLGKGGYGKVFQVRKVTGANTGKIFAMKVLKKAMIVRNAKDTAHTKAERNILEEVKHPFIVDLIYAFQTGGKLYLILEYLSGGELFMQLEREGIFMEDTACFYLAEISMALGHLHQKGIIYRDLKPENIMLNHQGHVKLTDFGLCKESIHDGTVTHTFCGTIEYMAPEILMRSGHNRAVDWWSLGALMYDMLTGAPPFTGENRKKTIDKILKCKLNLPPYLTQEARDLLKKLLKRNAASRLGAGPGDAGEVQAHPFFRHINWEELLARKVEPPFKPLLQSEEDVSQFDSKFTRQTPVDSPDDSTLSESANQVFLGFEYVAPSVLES
Chain of ROCK-II (h) (O75116 whole entry): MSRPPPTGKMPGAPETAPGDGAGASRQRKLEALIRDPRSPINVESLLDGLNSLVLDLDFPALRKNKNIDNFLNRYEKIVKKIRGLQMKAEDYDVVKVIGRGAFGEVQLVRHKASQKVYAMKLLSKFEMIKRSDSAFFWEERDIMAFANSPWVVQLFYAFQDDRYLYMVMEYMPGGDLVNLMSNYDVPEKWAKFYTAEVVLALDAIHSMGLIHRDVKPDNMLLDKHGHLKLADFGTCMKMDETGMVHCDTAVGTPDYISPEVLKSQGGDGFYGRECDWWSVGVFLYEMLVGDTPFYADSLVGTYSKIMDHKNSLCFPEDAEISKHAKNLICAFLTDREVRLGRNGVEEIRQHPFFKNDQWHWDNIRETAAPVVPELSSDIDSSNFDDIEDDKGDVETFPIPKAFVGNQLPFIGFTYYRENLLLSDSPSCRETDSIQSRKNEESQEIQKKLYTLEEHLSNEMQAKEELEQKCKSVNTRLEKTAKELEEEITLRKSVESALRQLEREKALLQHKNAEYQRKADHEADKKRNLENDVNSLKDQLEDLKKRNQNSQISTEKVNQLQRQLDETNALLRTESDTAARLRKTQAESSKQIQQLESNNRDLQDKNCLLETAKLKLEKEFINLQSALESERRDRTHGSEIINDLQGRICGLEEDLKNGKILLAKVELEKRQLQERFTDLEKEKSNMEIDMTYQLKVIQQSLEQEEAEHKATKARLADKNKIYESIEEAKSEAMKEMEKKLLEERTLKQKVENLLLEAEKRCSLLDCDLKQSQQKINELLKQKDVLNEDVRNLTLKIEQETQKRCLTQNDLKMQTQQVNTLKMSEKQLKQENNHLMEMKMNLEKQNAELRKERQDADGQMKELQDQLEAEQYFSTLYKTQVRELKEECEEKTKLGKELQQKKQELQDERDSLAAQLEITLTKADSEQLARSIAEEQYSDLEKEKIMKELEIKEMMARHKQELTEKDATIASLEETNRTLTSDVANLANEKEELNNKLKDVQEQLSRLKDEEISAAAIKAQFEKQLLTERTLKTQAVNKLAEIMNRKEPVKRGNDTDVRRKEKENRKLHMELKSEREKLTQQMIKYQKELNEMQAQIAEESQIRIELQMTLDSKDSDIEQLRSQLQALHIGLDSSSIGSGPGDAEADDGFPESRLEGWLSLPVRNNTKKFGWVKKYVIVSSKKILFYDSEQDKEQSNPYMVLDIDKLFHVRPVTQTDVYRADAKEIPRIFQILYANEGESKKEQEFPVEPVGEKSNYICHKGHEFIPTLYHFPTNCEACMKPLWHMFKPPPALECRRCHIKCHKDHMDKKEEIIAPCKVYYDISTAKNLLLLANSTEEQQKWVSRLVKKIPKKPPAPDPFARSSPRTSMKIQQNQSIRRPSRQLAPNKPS

## NCC(c1ccc(Cl)cc1)c1ccc(-c2cn[nH]c2)cc1 (stereo not drawn) [Example 4, 2-(4-Chloro-phenyl)-2-[4-(1H-pyrazol-4-yl)-phenyl]-ethylamine]
P70S6 kinase (T412E)
  IC50: < 100 nM

## NCCC(c1ccc(-c2cn[nH]c2)cc1)c1ccc(Cl)c(Cl)c1 (stereo not drawn) [Example 13, 3-(3,4-Dichloro-phenyl)-3-[4-(1H-pyrazol-4-yl)-phenyl]-propylamine]
P70S6 kinase (T412E)
  IC50: < 100 nM

## Clc1ccc(C2(c3ccc(-c4cn[nH]c4)cc3)CCNCC2)cc1 [Example 14, 4-(4-Chloro-phenyl)-4-[4-(1H-pyrazol-4-yl)-phenyl]-piperidine]
ROCK-II (h)
  IC50: < 100 nM

## CNCC(c1ccc(Cl)cc1)c1ccc(-c2cn[nH]c2)cc1 (stereo not drawn) [Example 21, {2-(4-Chloro-phenyl)-2-[4-(1H-pyrazol-4-yl)-phenyl]-ethyl}-methyl-amine]
P70S6 kinase (T412E)
  IC50: < 100 nM

## CNC[C@@H](c1ccc(Cl)cc1)c1ccc(-c2cn[nH]c2)cc1 [Example 22, {2-(4-Chloro-phenyl)-2-[4-(1H-pyrazol-4-yl)-phenyl]-ethyl}-methyl-amine (R)]
ROCK-II (h)
  IC50: < 100 nM
P70S6 kinase (T412E)
  IC50: < 100 nM

## CNC[C@H](c1ccc(Cl)cc1)c1ccc(-c2cn[nH]c2)cc1 [Example 23, {2-(4-Chloro-phenyl)-2-[4-(1H-pyrazol-4-yl)-phenyl]-ethyl}-methyl-amine (S)]
ROCK-II (h)
  IC50: < 100 nM
P70S6 kinase (T412E)
  IC50: < 100 nM

## CNCC(c1ccc(Cl)cc1)c1ccc(-c2cn[nH]c2)cc1 (stereo not drawn) [Example 42, {2-(4-Chloro-phenyl)-2-[4-(1H-pyrazol-4-yl)-phenyl]-ethyl}-methyl-amine]
P70S6 kinase (T412E)
  IC50: < 100 nM

## CNCC(c1ccc(Oc2cnccn2)cc1)c1ccc(-c2cn[nH]c2)cc1 (stereo not drawn) [Example 47, Methyl-{2-[4-(pyrazin-2-yloxy)-phenyl]-2-[4-(1H-pyrazol-4-yl)-phenyl]-ethyl}-amine]
P70S6 kinase (T412E)
  IC50: < 100 nM

## Clc1ccc(C(c2ccc(-c3cn[nH]c3)cc2)N2CCNCC2)cc1 (stereo not drawn) [Example 57, 1-{(4-Chloro-phenyl)-[4-(1H-pyrazol-4-yl)-phenyl]-methyl}-piperazine]
ROCK-II (h)
  IC50: < 100 nM

## CNCCC(Oc1cccc(Cl)c1)c1ccc(-c2cn[nH]c2)cc1 (stereo not drawn) [Example 59, {3-(3-Chloro-phenoxy)-3-[4-(1H-pyrazol-4-yl)-phenyl]-propyl}-methyl-amine]
ROCK-II (h)
  IC50: < 100 nM

## CNCC(Oc1ccc(Cl)cc1)c1ccc(-c2cn[nH]c2)cc1 (stereo not drawn) [Example 71, {2-(4-Chloro-phenoxy)-2-[4-(1H-pyrazol-4-yl)-phenyl]-ethyl}-methyl-amine]
P70S6 kinase (T412E)
  IC50: < 100 nM

## NCC(O)(c1ccc(Cl)cc1)c1ccc(-c2cn[nH]c2)cc1 (stereo not drawn) [Example 84, 2-Amino-1-(4-chloro-phenyl)-1-[4-(1H-pyrazol-4-yl)-phenyl]-ethanol]
ROCK-II (h)
  IC50: < 100 nM
P70S6 kinase (T412E)
  IC50: < 100 nM

## Clc1ccc(C2(c3ccc(-c4cn[nH]c4)cc3)CCNCC2)cc1Cl [Example 85, 4-(3,4-Dichloro-phenyl)-4-[4-(1H-pyrazol-4-yl)-phenyl]-piperidine]
P70S6 kinase (T412E)
  IC50: < 100 nM

## NCC(c1ccc(-c2cn[nH]c2)cc1)c1ccc(Cl)c(Cl)c1 (stereo not drawn) [Example 98, 2-(3,4-Dichloro-phenyl)-2-[4-(1H-pyrazol-4-yl)-phenyl]-ethylamine]
P70S6 kinase (T412E)
  IC50: < 100 nM

## C[C@@H](N)[C@H]1CC[C@H](C(=O)Nc2ccncc2)CC1 [Example Y-27632]
Rat MM1 hepatoma cells
  Rho-mediated activation of actomyosin: blocked
  invasive activity of MM1 cells: blocked
MM1 cells
  dissemination of MM1 cells: considerably reduced
[1]
  bethanechol-evoked contractions: attenuates
